Source: publication PMC5708362, “A systematic analysis of atomic protein–ligand interactions in the PDB” (MedChemComm, 2017)

Key:
[1] = test system: human factor Xa; assay: factor Xa inhibition, ammonium methylation series (cation–π); assay type: biochemical; settings: trimethylated ammonium 17 vs tert-butyl analog 15
[2] = test system: thrombin; set-up: method as in PMID 20148533; settings: thrombin inhibitors; cited from earlier work
[3] = test system: human sEH; set-up: method as in PMID 19746975; settings: human sEH inhibitors; cited from earlier work
[4] = test system: human EGFR; assay: EGFR inhibition (salt bridge pair); assay type: biochemical; settings: 9 (carbon in place of terminal N,N-dimethylamino nitrogen) vs 10
[5] = test system: human EGFR; set-up: method as in PMID 23611691; settings: human EGFR inhibitors; cited from earlier work

| Compound | IC50 [3] [µM] | IC50 [5] [µM] | also measured |
| --- | --- | --- | --- |
| C[N+](C)(C)CCCN1C(=O)[C@@H]2[C@H](C1=O)[C@H](c1cc(-c3ccc(Cl)s3)on1)N1CCC[C@@H]21 (racemic) [(±)-17] |  |  | fold increase in potency [1]: 60 fold |
| O=C(NCc1cccc(Cl)c1)[C@@H]1CCCN1C(=O)CCc1ccccc1 [compound 3] |  |  | IC50 [2]: 94.3 µM |
| O=C(NCCCc1ccccc1)c1cccnc1 [compound 5] | 0.7 |  |  |
| CC(C)CCCC(=O)Nc1cccc(-c2c(-c3ccccc3)oc3ncnc(N[C@H](CO)c4ccccc4)c23)c1 [compound 9] |  | > 25 | potency reduced by fold [4]: more than 800 fold |
| CN(C)CCCC(=O)Nc1cccc(-c2c(-c3ccccc3)oc3ncnc(N[C@H](CO)c4ccccc4)c23)c1 [compound 10] |  | 0.029 |  |
